Data from US12138246B2, “Treatments with nirogacestat” (SpringWorks Therapeutics, Inc., priority 2022, dated 2024).
Counter-ions that a name gives are not always drawn.

Tests used:
[1] = tested on: progressing desmoid tumors/aggressive fibromatosis (DT/AF); assay type: in vivo
Excerpt: A Phase 3, double-blind, placebo-controlled study is being conducted to determine the efficacy and safety of nirogacestat dihydrobromide in participants with progressing desmoid tumors. A Phase 1 solid tumor study provided preliminary efficacy (Messersmith, W., et al., “A Phase I, dose-finding study in patients with advanced solid malignancies of the oral γ-secretase inhibitor PF-03084014,” Clin. Cancer Res., 21:60-7 (2015)), including long-term durable responses and safety of nirogacestat in desmoid participants (Villalobos, V. M., et al., “Long-Term Follow-Up of Desmoid Fibromatosis Treated with PF-03084014, an Oral Gamma Secretase Inhibitor, Ann. Surg. Oncol., 25:768-75 (2018)). These encouraging results lead to a Phase 2 study in participants with progressing desmoid tumors (Kummar, S., et al., “Clinical Activity of the γ-Secretase Inhibitor PF-03084014 in Adults with Desmoid Tumors (Aggressive Fibromatosis), J. Clin. Oncol., 35:1561-69 (2017)). […] Importantly, participants in the responder group had failed previous systemic therapies (imatinib or sorafenib) indicating a need for alterative therapeutic options for this patient population.
Overall Design: The Phase 3 study will be a multi-center, randomized, double-blind, placebo-controlled, event-driven to compare the efficacy, safety, and tolerability of nirogacestat and placebo in adult participants with progressing DT/AF. This study will consist of 2 phases, a double-blind and an optional open-label extension (OLE) phase.
Following disease progression (confirmed by central review using RECIST v1.1), or completion of the double-blind phase (once the required number of events have been observed and the primary PFS analysis has been completed), participants' treatment assignment will be unblinded, and if eligible, participants will have the option to enroll in the optional OLE phase.
• 1. Participant has DT/AF that has progressed by ≥20% as measured by RECIST v1.1 within the 12-month period prior to first dose of study treatment. • 2. Participant has: • a. Newly diagnosed, measurable progressing DT/AF that is not amenable to surgical resection or radiation therapy; • OR • b. Recurrent, progressing DT/AF following CR to initial therapy; • OR • c. Preexisting DT/AF and has previously received therapy and the residual tumor has progressed. • 3. Participant agrees to provide archival or new tumor tissue for confirmation of disease. • 4. If participant was previously treated with an investigational therapy for treatment of DT/AF, participant must have completed prior therapy at least 28 days prior to signing informed consent. All toxicities from prior therapy must resolve to ≤Grade 1 or baseline. • 5. Participants who are receiving nonsteroidal anti-inflammatory drugs (NSAIDs) as treatment for conditions other than DT/AF must be receiving them prior to the observed progression (inclusion criteria 1) for: • a. Chronic scheduled daily use (defined as stable for 28 days prior to signing informed consent); or • b. Occasional use (defined as ≤3 days per week) for the treatment of pain or as an anti-inflammatory in licensed conditions such as headache, arthritis, etc. • c. Participant has an Eastern Cooperative Oncology Group (ECOG) performance status ≤2 at screening. • 6. Participant has adequate organ and bone marrow function as defined by the following Screening laboratory values: • a. Absolute neutrophil count ≥1500/μL; • b. Platelets ≥100×10^3/μL; • c. Hemoglobin ≥9 g/dL; • d. Total bilirubin ≤1.5× upper limit of normal (ULN) (isolated bilirubin >1.5×ULN is acceptable if bilirubin is fractionated and direct bilirubin <35%); • e. Aspartate aminotransferase (AST) (serum glutamic oxaloacetic transaminase)/alanine aminotransferase (ALT) (serum glutamic pyruvate transaminase)≤2×ULN; and • f. […] Participant can swallow tablets and has no gastrointestinal conditions affecting absorption. […]

[2] = tested on: progressing desmoid tumors; settings: Phase 2, participants with progressing desmoid tumors; cited from earlier work
[3] = Pharmacokinetic parameters for single oral doses; assay type: in vivo, human
[4] = intent-to-treat population, n = 70
[5] = Min, COHORT 1: 150 mg (3 × 50 mg), Period 1

Structure (SMILES) | most frequent adverse reactions requiring a dose reduction or interruption ([1]; in vivo) | Best overall response, n (%): Complete response [1, 4] | Best overall response, n (%): Not evaluable [1, 4] | Best overall response, n (%): Partial response [1, 4] | Best overall response, n (%): Progressive disease [1, 4] | Best overall response, n (%): Stable disease [1, 4] | Disease control rate, n (%) [1, 4] | Time to response, months, median (range) [1, 4] | progression-free survival (PFS), hazard ratio (HR) ([1]; nirogacestat over placebo, 150 mg twice daily, p<0.001) | progression while on therapy [2] | CL/F ([3]; Max, COHORT 1: 150 mg (1 × 150 mg), Period 2) | Half-life ([3]; Max, COHORT 1: 150 mg (3 × 50 mg), Period 1) | CL/F ([3]; Max, COHORT 3: 50 mg, Period 1) | CL/F ([3]; Median, COHORT 1: 150 mg (3 × 50 mg), Period 1) | AUCinf [3, 5] | AUClast [3, 5]
CCC[C@H](N[C@H]1CCc2cc(F)cc(F)c2C1)C(=O)Nc1cn(C(C)(C)CNCC(C)(C)C)cn1 (single isomer, unassigned) [nirogacestat] | diarrhea, rash maculo-papular, hypophosphatemia, stomatitis, folliculitis, and fatigue | 5 (7) n (%) | 4 (6) n (%) | 24 (34) n (%) | 1 (1) n (%) | 35 (50) n (%) | 64 (91) n (%) | 5.6 (2.6, 19.4) months | 0.29 | no participants progressing while on therapy |  |  |  |  |  | 
CCC[C@H](N[C@H]1CCc2cc(F)cc(F)c2C1)C(=O)Nc1cn(C(C)(C)CNCC(C)(C)C)cn1 [nirogacestat dihydrobromide] |  |  |  |  |  |  |  |  |  |  | 82.0 L/h | 32.0 h | 660 L/h | 57.0 L/h | 2160 ng·h/mL | 2080 ng·h/mL
